Structures can show the parent of a compound that is named as a salt.
Columns and labels:
[1] = biological target: T1, purified recombinant form of human BACE1 aspartyl protease (Homo sapiens, UniProt P56817); experiment: in vitro inhibition of β-secretase (BACE1) activity, cleavage of fluorogenic peptide substrate FS1 (FRET); assay type: biochemical; conditions: recombinant human BACE1 10 nM, substrate FS1 5 μM, sodium acetate buffer pH 4.5, 37° C., 45 minutes; read-out: IC50 (concentration of product giving 50% inhibition of the enzyme activity)
T1 construct: hexahistidine (C); made in house; host or cells: Drosophila cells
T1 sequence (P56817 46-501): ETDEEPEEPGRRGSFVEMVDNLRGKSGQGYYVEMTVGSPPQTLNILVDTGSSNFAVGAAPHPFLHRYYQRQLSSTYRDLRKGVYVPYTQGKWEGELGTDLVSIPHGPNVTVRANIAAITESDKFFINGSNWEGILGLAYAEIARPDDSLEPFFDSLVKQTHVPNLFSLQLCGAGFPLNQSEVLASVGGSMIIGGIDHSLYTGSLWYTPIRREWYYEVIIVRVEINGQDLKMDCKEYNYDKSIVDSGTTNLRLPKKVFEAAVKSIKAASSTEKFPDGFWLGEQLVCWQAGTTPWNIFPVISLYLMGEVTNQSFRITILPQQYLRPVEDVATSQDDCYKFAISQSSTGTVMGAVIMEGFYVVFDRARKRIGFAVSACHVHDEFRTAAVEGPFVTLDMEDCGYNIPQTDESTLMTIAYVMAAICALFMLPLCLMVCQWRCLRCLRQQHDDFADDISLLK
Text: The compounds according to the invention have been the subject of pharmacological tests enabling their inhibitory effect with respect to β-secretase activity to be determined.
The tests consisted in measuring the in vitro inhibition of the β-secretase activity by the compounds of the invention.
The β-secretase activity measured corresponds to that of a purified recombinant form of human BACE1 aspartyl protease (the latter comprising a hexahistidine tag at the C-terminal position) produced by expression in Drosophila cells. The purified enzyme is conditioned in TRIS buffer (18 mM) at pH 7.5 containing NaCl (0.45M), MnCl2 (0.9 mM), CaCl2 (0.9 mM), α-D-methylmannoside and 10% glycerol, and stored at −80° C. until use.
The BACE1 activity is measured from the cleavage of a fluorogenic peptide substrate, known as FS1, described originally by Ermolieff et Coll. (2000, Biochemistry, 39, 12450-12456), and based on the principle of fluorescence resonance energy transfer (FRET); the cleavage of the FS1 peptide is measured from the increase of the fluorescent signal emitted by the EDANS (or 5-[(2-aminoethyl)amino]-naphthalene-2-sulfonic acid) group.
The test is carried out in a 96-well microplate in order to determine the inhibition of the enzyme activity by the products of the invention. The substrate FS1 is solubilized to a concentration of 1 mM in 100% dimethylsulfoxide (DMSO) and stored at −20° C. until use. The dilutions of the products to be tested are prepared in DMSO starting from a 10 mM stock solution. The products of the invention, at final concentrations of 0.003 to 10 μM are incubated at 37° C. with the substrate FS1 (final concentration of 5 μM) and the purified enzyme (final concentration of 10 nM) in the sodium acetate buffer (0.1 M), pH 4.5 containing 0.02% of CHAPS detergent and […] for 45 minutes. […] When the incubation is finished, the fluorescence is measured in a spectrofluorimeter, at the excitation wavelength of 355 nm and emission wavelength of 509 nm. For each product concentration tested, the fluorescent signal is compared to the maximum signal obtained when the substrate FS1 is only incubated with the enzyme.
The inhibitory activity of the products of the invention is then evaluated by the measurement of the IC50 (concentration of product giving 50% inhibition of the enzyme activity) using a non-linear regression analysis (computer application software XLfit, IDBS™).

Row | melting point | IC50 [1] | Structure (SMILES)
1 | 176 °C | – | CCCC(CCC)N1CCn2c(C(=O)N[C@@H](Cc3ccccc3)[C@H](O)CNC3(c4cccc(C(F)(F)F)c4)CC3)ccc2C1=O.Cl
2 | 143 °C | – | CCN(CC)C(=O)c1cc(C(=O)N[C@@H](Cc2ccccc2)[C@H](O)CNC2(c3cccc(C(F)(F)F)c3)CC2)n2c1CNCC2 (as salt: HCl) [Compound 5, 6-{(1S,2R)-1-benzyl-2-hydroxy-3-[1-(3-trifluoromethylphenyl)cyclopropylamino]propyl}-N-8,N-8-diethyl-1,2,3,4-tetrahydropyrrolo[1,2-a]pyrazine-6,8-dicarboxamide]
3 | 136 °C | – | COC(=O)c1cc(C(=O)N[C@@H](Cc2ccccc2)[C@H](O)CNC2(c3cccc(C(F)(F)F)c3)CC2)n2c1CN(C(=O)OC(C)(C)C)CC2 [Compound 1, 2-tert-Butyl 8-methyl 6-{[(1S,2R)-1-benzyl-2-hydroxy-3-({1-[3-(trifluoromethyl)phenyl]cyclopropyl}amino)propyl]carbamoyl}-3,4-dihydropyrrolo[1,2-a]pyrazine-2,8(1H)-dicarboxylate]
4 | – | 310 nM | CCN(CC)C(=O)c1cc(C(=O)N[C@@H](Cc2ccccc2)[C@H](O)CNC2(c3cccc(C(F)(F)F)c3)CC2)n2c1CNCC2 [Compound 5, 6-{(1S,2R)-1-benzyl-2-hydroxy-3-[1-(3-trifluoromethylphenyl)cyclopropylamino]propyl}-N-8,N-8-diethyl-1,2,3,4-tetrahydropyrrolo[1,2-a]pyrazine-6,8-dicarboxamide]
5 | 183 °C | 480 nM | CCCC(CCC)N1CCn2c(C(=O)N[C@@H](Cc3cc(F)cc(F)c3)[C@H](O)CNC3(c4cccc(C(F)(F)F)c4)CC3)ccc2C1=O.Cl [Compound 7, N-[(1S,2R)-1-(3,5-Difluorobenzyl)-2-hydroxy-3-({1-[3-(trifluoromethyl)-phenyl]cyclopropyl}amino)propyl]-1-oxo-2-(1-propylbutyl)-1,2,3,4-tetrahydropyrrolo[1,2-a]pyrazine-6-carboxamide hydrochloride (1:1)]
6 | 168 °C | 370 nM | CCCC(CCC)N1CCn2c(C(=O)N[C@@H](Cc3ccccc3)[C@H](O)CNCc3cccc(C(F)(F)F)c3)ccc2C1=O.Cl [Compound 9, N-[(1S,2R)-1-Benzyl-2-hydroxy-3-{[3-(trifluoromethyl)benzyl]amino}propyl]-1-oxo-2-(1-propylbutyl)-1,2,3,4-tetrahydropyrrolo[1,2-a]pyrazine-6-carboxamide hydrochloride (1:1)]
7 | – | 1400 nM | CCCC(CCC)N1CCCn2c(C(=O)N[C@@H](Cc3ccccc3)[C@H](O)CNCc3cccc(C(F)(F)F)c3)ccc2C1=O [Compound 11, N-[(1S,2R)-1-Benzyl-2-hydroxy-3-{[3-(trifluoromethyl)benzyl]amino}propyl]-1-oxo-2-(1-propylbutyl)-2,3,4,5-tetrahydro-1H-pyrrolo[1,2-a][1,4]diazepine-7-carboxamide hydrochloride (1:1)]

Row | Structure (SMILES) | melting point | IC50 [1]
8 | CC(C)(C)OC(=O)N1CCn2c(C(=O)N[C@@H](Cc3ccccc3)[C@H](O)CNC3(c4cccc(C(F)(F)F)c4)CC3)cc(C(=O)O)c2C1 [Compound 2, 6-{[(1S,2R)-1-Benzyl-2-hydroxy-3-({1-[3-(trifluoromethyl)phenyl]cyclopropyl}amino)propyl]carbamoyl}-2-(tert-butoxycarbonyl)-1,2,3,4-tetrahydropyrrolo[1,2-a]pyrazine-8-carboxylic acid] | 134.5 °C | –

From patent US20100197668A1, “1,2,3,4-TETRAHYDROPYRROLO[1,2-A]PYRAZINE-6-CARBOXAMIDE AND 2,3,4,5-TETRAHYDROPYRROLO[1,2-a][1,4]-DIAZEPINE-7-CARBOXAMIDE DERIVATIVES, PREPARATION AND THERAPEUTIC USE THEREOF” (SANOFI-AVENTIS, priority 2007, published 2010)
